Patent US11420966B2 (ACLARIS THERAPEUTICS, INC., priority 2019, dated 2022)

How the values were obtained:
[1] = target: JAK1 (Homo sapiens (Human), UniProt P23458); experiment: JAK1 enzyme activity assay (Thermo Fisher SelectScreen, Z-lyte); type: biochemical; conditions: read-out: JAK1 Inhibition IC50
Outline: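 Z-lyte assay with 21.2-91.5 ng JAK and […] Tyr 06 in 50 mM HEPES pH 7.0, 10 mM MgCl2, 1 mM EGTA, 0.01% BRIJ-35; 1 h kinase reaction, then development reagent. 11-point dose-response from […] to 0.34 nM, 2% DMSO vehicle; IC50 from 4-parameter logistic fit of emission ratio.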

[2] = test system: IL-2 stimulated STAT5 phosphorylation on Tyr694 (JAK1/3); experiment: JAK1/3 cellular target modulation: IL-2 stimulated phospho-STAT5 in PBMC; type: cell-based; conditions: human PBMC, IL-2 25 ng/ml; read-out: IL2-STAT5 IC50
Outline: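 Thawed human PBMC (200,000/well, RPMI/10% FBS) were preincubated with compound for 1 h at 37 °C, added from 10× stocks in 1% DMSO. Stimulation and read-out: IL-2 25 ng/ml, 5 min, pSTAT5 by MSD; IL-12 1.7 ng/ml, 25 min, pSTAT4 by MSD; IFNγ 10 ng/ml, 10 min, pSTAT1 by sandwich ELISA.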

[3] = GI Exposure PK in Mice; type: in vivo; conditions: mouse, male BalbC mice, oral dose of 5 mg/kg
Description: The test compound was wetted with ˜0.025% of Tween-20 and triturated in a mortar and pestle, then slowly 0.5% of methyl cellulose was added to make up the final volume to 7.25 mL. The BalbC test animals were subjected to anesthesia induced with a mixture of 5% isoflurane and 0.8-1.5 L/min 02 gas flow. The formulated test compound was then dosed via oral gavage. At various time points (0.5, 1, 2, 4, 6 and 8 h) blood samples (˜100 μL) were collected from portal vein (pre-hepatic) followed by cardiac puncture (circulating) into tubes containing 2% w/v aqueous K2 EDTA solution as per time points. Post blood sampling, the gastro intestine (GI) tissues were collected from the mice at the same time points. The GI tissue was dissected into different parts as duodenum, jejunum, ileum and colon. The separated tissues were washed by flushing with PBS via oral gavage needle to remove GI content. Post collection all the tissues were blotted, weighed and homogenized with PBS buffer (pH 7.4). The blood samples were immediately placed on ice and centrifuged within 30 min at 4° C. for 5 min at 8,000 rpm to obtain plasma. Plasma was transferred by pipettes to pre-labelled centrifuge tubes and immediately transferred to −80° C. until bioanalysis. Tissue samples were placed in pre-labelled container and all samples were kept in −80° C. until homogenized. The homogenate was stored immediately in −80° C. until bioanalysis was conducted. Study samples were thawed to room temperature and 50 μL of sample was aliquoted into pre-labeled vials. To these was added 400 μL of 100% acetonitrile containing an IS (100 ng/mL; warfarin, tolbutamide and loperamide). The vials were mixed well, vortexed for 5 min, followed by centrifugation for 5 min at 14000 rpm at 4° C. The supernatant was separated and same was injected on LC-MS/MS. Plasma and GI tissue levels of test compound were determined by LC-MS analysis using a standard curve in the text matrix. Individual concentration-time data were analyzed using Phoenix WinNonlin (Version 8.1) by the non-compartmental analysis (NCA) method.

[4] = portal vein plasma (pre-hepatic), Portal plasma

Chain of JAK1 (P23458 whole entry): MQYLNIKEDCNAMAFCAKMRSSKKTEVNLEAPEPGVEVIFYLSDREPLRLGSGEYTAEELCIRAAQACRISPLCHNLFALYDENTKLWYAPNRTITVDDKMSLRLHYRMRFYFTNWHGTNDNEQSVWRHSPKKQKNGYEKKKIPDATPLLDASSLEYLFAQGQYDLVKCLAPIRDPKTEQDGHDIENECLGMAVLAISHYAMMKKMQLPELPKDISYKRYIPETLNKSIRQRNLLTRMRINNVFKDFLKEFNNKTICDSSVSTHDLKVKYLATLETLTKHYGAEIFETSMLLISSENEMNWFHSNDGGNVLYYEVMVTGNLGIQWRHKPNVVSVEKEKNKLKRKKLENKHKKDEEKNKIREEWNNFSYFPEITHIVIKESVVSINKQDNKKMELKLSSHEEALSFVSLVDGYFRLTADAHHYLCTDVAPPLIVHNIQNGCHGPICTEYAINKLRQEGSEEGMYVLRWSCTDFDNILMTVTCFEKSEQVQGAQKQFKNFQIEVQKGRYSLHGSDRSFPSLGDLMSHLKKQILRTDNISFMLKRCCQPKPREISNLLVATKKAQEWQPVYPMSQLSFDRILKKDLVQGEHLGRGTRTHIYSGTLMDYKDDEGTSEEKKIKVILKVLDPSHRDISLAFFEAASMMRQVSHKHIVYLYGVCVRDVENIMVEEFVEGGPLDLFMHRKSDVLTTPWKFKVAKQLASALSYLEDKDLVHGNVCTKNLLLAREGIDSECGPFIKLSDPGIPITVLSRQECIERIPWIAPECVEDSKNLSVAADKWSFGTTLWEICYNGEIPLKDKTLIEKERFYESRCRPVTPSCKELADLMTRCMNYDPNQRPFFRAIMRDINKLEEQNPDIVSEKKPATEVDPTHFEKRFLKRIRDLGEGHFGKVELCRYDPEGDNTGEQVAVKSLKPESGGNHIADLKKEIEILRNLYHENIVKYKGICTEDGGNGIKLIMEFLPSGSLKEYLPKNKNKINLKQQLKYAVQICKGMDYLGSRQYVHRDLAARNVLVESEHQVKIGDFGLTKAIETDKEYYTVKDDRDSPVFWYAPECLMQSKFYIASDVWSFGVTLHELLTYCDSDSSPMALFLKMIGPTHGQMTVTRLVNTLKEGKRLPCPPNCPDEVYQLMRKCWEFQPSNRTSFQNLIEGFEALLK

## CNC(=O)c1coc(-c2cnc3[nH]ccc3c2N[C@@H]2C[C@H](C)CN(C(=O)CC#N)C2)n1 [Example 31, 2-(4-(((3R,5S)-1-(2-cyanoacetyl)-5-methylpiperidin-3-yl)amino)-1H-pyrrolo[2,3-b]pyridin-5-yl)-N-methyloxazole-4-carboxamide]
[1]
  IC50: ≤ 10 nM
[2]
  IC50: ≤ 100 nM
[3]; circulating plasma (cardiac puncture), Circulating plasma
  Tmax: 4 h
[3]; circulating plasma (cardiac puncture), Circulating plasma, two of three subjects, third BLQ
  Cmax: 9.2 ng/mL
[3]; [4]
  AUC: 17.2 ng·h/mL
  Cmax: 11.3 ng/mL
  Tmax: 0.5 h
[3]; Colon
  AUC: 6820 ng·h/mL
  Cmax: 1290 ng/g
  Tmax: 4 h
[3]; Duodenum
  AUC: 4660 ng·h/mL
  Cmax: 2880 ng/g
  Tmax: 0.5 h
[3]; Ileum
  AUC: 82500 ng·h/mL
  Cmax: 43800 ng/g
  Tmax: 2 h
[3]; Jejunum
  AUC: 57400 ng·h/mL
  Cmax: 37000 ng/g
  Tmax: 0.5 h
